Data: US9648880B2, “Antifungal agents and uses thereof” (University of Massachusetts, priority 2012, dated 2017)
Entries after “also recorded” stand apart in the source; their conditions may differ.

Experiments:
Format in all cases: cell-based, Candida albicans
[1] = tested on: C. albicans adherence to human lung epithelial A549 cells; assay: epithelial cell binding assay; settings: 25 μM; 37° C., 90 min
Text: In addition to experiments with inert surfaces, we also tested how the candidate compounds would affect C. albicans adherence to human cells, measuring binding of Green Fluorescent Protein (GFP)-encoding C. albicans cells to monolayers of human lung epithelial A549 cells, which are an effective substrate for Candida adhesion (Kitamura, Antimicrob Agents Chemother. 53: 3963-3971, 2009). […] We conclude that compound #4 is not toxic to this human cell line under our assay concentrations, but can impair fungal adhesion both to inert surfaces and to cultured human epithelial cells.
Human lung epithelial A549 cells (Giard, 1973) were grown to confluence on Nunc 48 well plates in RPMI+10% FBS and Penicillin/Streptomycin. Media was decanted and plates were carefully washed 3 times with PBS to remove unbound cells. Pre-grown overnight cultures of SC5314-GFP and edt1^−/−-GFP C. albicans cells were resuspended in fresh SC+0.2% glucose at 0.5 OD/ml and 250 μl of yeast suspension were plated onto to each well. Following incubation at 37° C. for 1.5 hours, media was decanted, and the monolayers were washed carefully 3 times with 250 μl PBS. Fluorescence from bound yeast was measured (485 Ex/535 Em) using the Synergy HT plate reader (BioTek) after addition of 100 μl PBS/well.

[2] = tested on: C. albicans SC5314-GFP biofilm; assay: biofilm formation on silicone elastomers; settings: for dry weight of biofilm / biofilm formation, visual inspection: 50 μM, 60 hrs; for biofilm formation, visual inspection: silicone mesh
Procedure: FIGS. 5A-5C. Effect of small molecules on biofilm formation in vitro. FIG. 5A is a series of photographs showing biofilm formation on silicone elastomers. Biofilm assay was performed with SC5314-GFP and edt1^Δ/Δ-GFP and photographed after 60 hrs. Indicated compounds were added at 50 μM. Turbid medium indicates planktonic cells unattached to silicone elastomers when biofilm formation is inhibited. Clear medium with the cell attached to the silicone elastomer indicate establishment of functional biofilm. Each treatment was done in triplicate. FIG. 5B is a graph showing quantitation of turbidity of medium. Media was removed from the wells, vortexed vigorously and the OD at 600 nm was measured in a spectrophotometer. FIG. 5C is a graph showing quantitation of dry weight of biofilm. Dry weight in mg of air-dried silicone elastomers.
Fungal biofilm formation on implanted medical devices is a serious medical problem because these biofilms can lead to life-threatening systemic infections. An established in vitro assay to study device colonization makes use of silicone mesh as a surrogate surface (Nobile, 2006). We tested how the compounds that affected polystyrene adhesion (FIG. 1) would affect biofilm formation by visual inspection of the biofilms formed, by measuring the optical density of the supernatant liquid cultures, and by measuring their dry weights. […] Therefore, compounds #4 and Q1 were effective inhibitors of both hyphal morphogenesis (FIG. 4) and biofilm formation on silicone mesh (FIG. 5).
We adapted a published method (Nobile, 2006, supra). Autoclaved, pre-weighed silicone mesh squares (Bentec, Catalog Number PR72034-04N) were incubated overnight at 37° C. with undiluted bovine serum. Following washing with PBS, the squares were transferred to 12-well plates and incubated with 0.5 OD/ml SC5314-GFP cells in Spider medium (with or without drugs as indicated), for 90 min at 37° C., shaking at 200 rpm. Squares were washed in PBS and transferred to new 12-well plates containing fresh Spider medium with fresh drugs and incubated for 60 hrs in a 37° C. shaker at 200 rpm. The plates were then photographed, the liquid media were collected for A600 nm measurements, and the dry weights of the bound biofilms were measured following drying of the silicone squares in a chemical hood.

C. albicans = assay: pretreatment (pre-coating) of polystyrene, then adhesion assay
Procedure: FIGS. 11A-11D. Compound #4 can coat surfaces and reduce subsequent fungal adhesion. […] is a graph showing the results of pretreatment of polystyrene with candidate compounds. Indicated compounds at 50 μM were incubated in polystyrene 96-well plates overnight. Wells were washed three times with 100 μl of PBS. C. albicans adhesion was then measured using the vital dye alamarBlue, with no additional drug treatment. FIG. 11B is a graph showing titration of compounds #1, 4 and 9 for pre-binding to polystyrene. Indicated concentrations of compounds were pre-incubated with polystyrene plates as above prior to the adhesion assays. FIG. 11C is a graph showing the inhibition of adhesion by pretreatment of C. albicans SC5314 cells with compound #4 prior to introduction to plastic. SC5314 cells were treated with 25 μM compound #4 or DMSO in liquid culture prior to their introduced into polystyrene plates. Cells were washed with PBS prior to resuspension into SCM and seeding into 96-well plates for adhesion assays using alamarBlue detection of remaining cells. The pretreated cells were assayed alongside a standard adhesion assay in which compound #4 and the cells were coincubated with the plastic simultaneously. FIG. 11D is a graph showing the results of an assay performed as in FIG. 11C, except that SC5314-GFP cells were used, and then detected via fluorescence measurement. edt1 indicates non-adherent mutant cells, PBS indicates background fluorescence in absence of cells.
Because compounds #4 and #9 contain a nitrophenyl group (FIG. 3A), solutions containing these appear yellow. […] To test this idea, we preincubated polystyrene plates with each of the compounds that affect adhesion to polystyrene, washed to remove unbound compound molecules, and then added C. albicans cells to measure adhesion without further addition of compound.
To distinguish the three pre-coating compounds, we then titrated them in this pre-coating assay (FIG. 11B). […] We also tested whether compound #4 could affect fungal adhesion when it was used to pre-coat C. albicans cells rather than the polystyrene surface. […] We conclude that compound #4 has the ability to make polystyrene and the C. albicans cell surface less amenable to subsequent adhesion.

O=C(c1ccc(Cl)c(Cl)c1)N1CCN(c2ccc([N+](=O)[O-])cc2)CC1 [Compound 9]
inhibition of C. albicans adhesion to human A549 cells [1]: not #9 effectively inhibited human cell binding
dry weight of biofilm [2]: most effective at reducing biofilm formation
biofilm formation, visual inspection [2]: most effectively kept the cells dispersed in the media rather than on the mesh
subsequent adhesion of C. albicans to pre-coated polystyrene (C. albicans; 12.5 μM or below): much less so
subsequent adhesion of C. albicans to pre-coated polystyrene (C. albicans; 25 μM): strongly inhibitory
subsequent adhesion of C. albicans to pre-coated polystyrene (C. albicans; 50 μM, overnight, washed): efficiently inhibited subsequent adhesion

Cc1ccc(C(=O)N2CCN(c3ccc([N+](=O)[O-])cc3)CC2)cc1Cl [Compound 4]
inhibition of C. albicans adhesion to human A549 cells [1]: by far the strongest inhibitor of adhesion to human epithelial cells; also recorded: strongly inhibited
dry weight of biofilm [2]: most effective at reducing biofilm formation
biofilm formation, visual inspection [2]: most effectively kept the cells dispersed in the media rather than on the mesh
biofilm formation on silicone mesh ([2]; Example 14): effective inhibitors of both hyphal morphogenesis and biofilm formation on silicone mesh
subsequent adhesion of C. albicans to pre-coated polystyrene (C. albicans; 12.5 μM or below): much less so
subsequent adhesion of C. albicans to pre-coated polystyrene (C. albicans; 25 μM): strongly inhibitory
subsequent adhesion of C. albicans to pre-coated polystyrene (C. albicans; 50 μM, overnight, washed): efficiently inhibited subsequent adhesion
